Two molecules from patent publication US20210315824A1, “PHARMACEUTICAL FORMULATIONS COMPRISING NITROCATECHOL DERIVATIVES AND METHODS OF MAKING THE SAME” (BIAL - PORTELA & CA, S.A., priority 2009, published 2021) can be followed below.

The nature of the data set: Bulk and tapped density of granules / API. In kind it is physicochemical. The settings on record: API alone, prior to granulation and/or formulation. An excerpt: It is within the ability of one of skill in the art to determine the bulk density of a compound or composition using methods generally accepted in the art. However, suitable methods include, for example, the European Pharmacopeia edition 6, Test 2.9.15 “apparent volume,” pages 285-286, EDQM, 2007, and USP 31, vol. 1, test <616> page 231-232, The United States Pharmacopeia Convention, 2008. Another example of a suitable method is described below:
Apparatus: • settling apparatus capable of producing in 1 minute 250±15 taps from a height of 3±0.2 mm. The support for the graduated cylinder with its holder, has a mass of 450±5 g • a 250 ml graduated cylinder (2 ml intervals) with a mass of 220±40 g
Method: Into a dry cylinder, introduce without compacting, 100.0 g (m g) of the test substance. […] Read the unsettled apparent volume (V0) to the nearest milliliter. Carry out 10, 500 and 1250 taps and read the corresponding volumes V10, V500, V1250, to the nearest milliliter. […]
Alternatively, if it is not possible to select 100.0 g, select a test sample of any mass but with a volume between 50 ml and 250 ml, measure its apparent volume, V0 as described above, and weigh the sample and specify the mass in the expression of results. Bulk/apparent density may then be determined in g/ml using the following formula: […]
Tapped apparent density may then be determined in g/ml using the following formula: […]

For `Cc1c(Cl)c(C)[n+]([O-])c(Cl)c1-c1noc(-c2cc(O)c(O)c([N+](=O)[O-])c2)n1` [2,5-dichloro-3-(5-(3,4-dihydroxy-5-nitrophenyl)-1,2,4-oxadiazol-3-yl)-4,6-dimethylpyridine 1-oxide], the bulk density result was “less than 0.1 g/ml”. For `Cc1nc(Cl)c(-c2noc(-c3cc(O)c(O)c([N+](=O)[O-])c3)n2)c(C)c1Cl` [5-[3-(2,5-dichloro-4,6-dimethylpyridin-3-yl)-[1,2,4]oxadiazol-5-yl]-3-nitrobenzene-1,2-diol], the bulk density entry is on record as “around 0.2 g/ml”.
